From patent US11008346B2, “Beta-lactamase inhibitors” (priority 2014, dated 2021)

What was measured:
SHV-5 β-lactamase = molecular target: T1, SHV-5 β-lactamase (Klebsiella pneumoniae, UniProt P0A3M1); assay: β-lactamase enzyme inhibition, SHV-5; format: biochemical
T1 construct: made in house; host or cells: E. coli BL21(DE3)
Outline: (§1)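 IC50 was the inhibitor concentration halving the initial hydrolysis rate versus no-inhibitor wells, following a 15 min 37° C. enzyme–inhibitor preincubation. Substrates: imipenem read at 300 nm for KPC-2, cefotaxime at 260 nm for SHV-5, and nitrocefin (100 μM final) at 486 nm for OXA-1 and p99 AmpC. Enzymes were recombinant untagged proteins from E. coli BL21(DE3).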

p99 AmpC β-lactamase = molecular target: T2, p99 AmpC β-lactamase (Enterobacter cloacae, UniProt P05364); assay: β-lactamase enzyme inhibition, p99 AmpC; format: biochemical
T2 construct: made in house; host or cells: E. coli BL21(DE3)
T2 sequence (P05364 21-381): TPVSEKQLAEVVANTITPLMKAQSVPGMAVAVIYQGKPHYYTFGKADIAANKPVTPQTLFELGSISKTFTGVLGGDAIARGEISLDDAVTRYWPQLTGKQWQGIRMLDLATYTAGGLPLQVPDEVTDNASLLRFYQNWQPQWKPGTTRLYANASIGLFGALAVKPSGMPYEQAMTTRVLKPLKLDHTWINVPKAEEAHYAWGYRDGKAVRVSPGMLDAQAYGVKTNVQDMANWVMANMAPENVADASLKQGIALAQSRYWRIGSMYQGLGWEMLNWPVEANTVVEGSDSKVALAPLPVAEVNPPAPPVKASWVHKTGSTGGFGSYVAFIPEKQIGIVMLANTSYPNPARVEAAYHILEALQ
Outline: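 Inhibitor and enzyme were incubated 15 min at 37°C first. The enzyme was recombinant p99 AmpC, untagged, from E. coli BL21(DE3), purified by ion-exchange and size-exclusion chromatography.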

KPC-2 β-lactamase = molecular target: T3, KPC-2 β-lactamase (Klebsiella pneumoniae, UniProt Q9F663); assay: β-lactamase enzyme inhibition, KPC-2; format: biochemical; conditions: imipenem substrate, 300 nm; 15 min at 37° C. preincubation; read-out: IC50 KPC-2 (Class A)
T3 construct: made in house; host or cells: E. coli BL21(DE3)
T3 sequence (Q9F663 25-293, looked up): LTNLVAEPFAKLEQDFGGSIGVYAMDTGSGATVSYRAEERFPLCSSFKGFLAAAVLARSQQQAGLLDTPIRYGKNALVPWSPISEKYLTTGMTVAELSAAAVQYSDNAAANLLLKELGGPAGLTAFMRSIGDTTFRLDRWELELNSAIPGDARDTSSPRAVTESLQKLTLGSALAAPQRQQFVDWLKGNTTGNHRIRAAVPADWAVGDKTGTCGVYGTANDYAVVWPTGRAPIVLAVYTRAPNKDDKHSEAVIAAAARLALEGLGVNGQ
Outline: as §1

[1] = tested on: S. aureus MSSA-7 producing penicillinase PC-1; assay: broth microdilution MIC, S. aureus PC-1; format: cell-based; conditions: Fixed Pip (piperacillin) 4 μg/mL
Description: (§2) To determine the ability of test compounds to potentiate the inhibition of the growth of bacterial strains that produce beta-lactamase enzymes, classic cell based broth microdilution MIC assays were employed. Six bacteria strains producing beta-lactamase enzymes were used: E. coli expressing the Class A Extended Spectrum Beta-Lactamase (ESBL) CTX-M-15, E. cloacae expressing the Class C P99, K. pneumoniae expressing the Class A carbapenemase KPC-3, P. aeruginosa expressing the Class B carbapenemase VIM-2, K pneumoniae expressing the class A carbapenemase KPC-2 and the class B carbapenemase VIM-4, and S. aureus producing the Class A penicillinase PC-1. The assay was conducted in Cation Adjusted Mueller Hinton Broth (CAMHB, BD #212322, BD Diagnostic Systems, Sparks, Md.). Bacteria strains were grown for 3-5 hours in CAMBH broth. Test compounds were added to a microtiter plate in 2-fold serial dilutions in CAMHB in a final concentration range of 32 μg/mL to 0.25 μg/ml. An overlay of CAMHB containing a Beta-lactam was added to the compounds at a final static concentration of 4 μg/ml. […] In addition to the titration of test compounds the MICs of a panel of control beta-lactams is also tested to ensure the strains are behaving consistently from test to test. Once the test compound and antibiotics are added the plates can be inoculated according to CLSI broth microdilution method. After inoculation the plates are incubated for 16-20 hours at 37° C., then the Minimal Inhibitory Concentration (MIC) of the test compound is determined visually.
(§3) Using the methodology described above, examples of the current invention were evaluated for their ability to inhibit the growth of β-lactamase-producing bacteria in the presence of a β-lactam antibiotic.
(§4) Representative results are shown in Table 4 where A represents an MIC of the fixed β-lactam antibiotic in the presence of >32 µg/mL of a β-lactamase inhibitor of exemplary compounds, B represents the MIC in the presence of between 8 and 32 µg/mL of a β-lactamase inhibitor of exemplary compounds, and C represents the MIC in the presence of ≤4 µg/mL of a β-lactamase inhibitor of exemplary compounds. NT=Not Tested.

OXA-1 β-lactamase = molecular target: T4, OXA-1 β-lactamase (Escherichia coli, UniProt P13661); assay: β-lactamase enzyme inhibition, OXA-1; format: biochemical; conditions: Nitrocefin 100 μM, 486 nm; 15 min at 37° C. preincubation; read-out: IC50 OXA-1 (Class D)
T4 construct: made in house; host or cells: E. coli BL21(DE3)
T4 sequence (P13661 26-276): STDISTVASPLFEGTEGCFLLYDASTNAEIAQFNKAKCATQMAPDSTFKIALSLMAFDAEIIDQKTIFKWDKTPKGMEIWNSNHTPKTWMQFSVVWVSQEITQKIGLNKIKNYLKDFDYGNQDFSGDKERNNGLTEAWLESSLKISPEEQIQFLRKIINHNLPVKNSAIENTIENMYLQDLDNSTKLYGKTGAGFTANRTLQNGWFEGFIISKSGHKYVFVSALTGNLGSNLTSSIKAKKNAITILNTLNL
Outline: as §1

[2] = tested on: P. aeruginosa Ps296 expressing VIM-2; assay: broth microdilution MIC, P. aeruginosa VIM-2; format: cell-based; conditions: Fixed Mero (meropenem) 4 μg/mL
Description: as §2, §3, §4

[3] = molecular target: T5, VIM-2 metallo β-lactamase (Pseudomonas aeruginosa, UniProt Q9K2N0); assay: β-lactamase enzyme inhibition, VIM-2; format: biochemical; conditions: Nitrocefin 100 μM, 486 nm; 15 min at 37° C. preincubation; read-out: IC50 VIM-2 (Class B)
T5 construct: made in house; host or cells: E. coli BL21(DE3)
Outline: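 Inhibitor and enzyme sat together 15 min at 37° C before 100 μM nitrocefin (final) was added and 486 nm absorbance read for 10 min. IC50 is the concentration halving initial hydrolysis rate relative to uninhibited wells. Protein came from Q sepharose anion exchange at pH 7.5, repeated to >90% purity.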

[4] = tested on: K. pneumoniae 156319 expressing KPC-3; assay: broth microdilution MIC, K. pneumoniae KPC-3; format: cell-based; conditions: Fixed Mero (meropenem) 4 μg/mL
Outline: (§5)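 Following CLSI broth microdilution, plates were read by eye for MIC after 16–20 h incubation at 37 °C. Each well held a fixed 4 μg/mL β-lactam overlay plus test compound serially halved from 32 to 0.25 μg/mL in CAMHB. Inocula came from 3–5 h broth cultures.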

[5] = tested on: K. pneumoniae A-1797 expressing KPC-2 and VIM-4; assay: broth microdilution MIC, K. pneumoniae KPC-2 and VIM-4; format: cell-based; conditions: Fixed Mero (meropenem) 4 μg/mL
Outline: as §5

[6] = tested on: E. cloacae 144200 expressing Class C P99 AmpC; assay: broth microdilution MIC, E. cloacae P99; format: cell-based; conditions: Fixed CAZ (ceftazidime) 4 μg/mL
Outline: as §5

[7] = tested on: E. coli ESBL4 expressing CTX-M-15; assay: broth microdilution MIC, E. coli CTX-M-15; format: cell-based; conditions: Fixed CAZ (ceftazidime) 4 μg/mL
Outline: as §5

T1 sequence (P0A3M1 22-286): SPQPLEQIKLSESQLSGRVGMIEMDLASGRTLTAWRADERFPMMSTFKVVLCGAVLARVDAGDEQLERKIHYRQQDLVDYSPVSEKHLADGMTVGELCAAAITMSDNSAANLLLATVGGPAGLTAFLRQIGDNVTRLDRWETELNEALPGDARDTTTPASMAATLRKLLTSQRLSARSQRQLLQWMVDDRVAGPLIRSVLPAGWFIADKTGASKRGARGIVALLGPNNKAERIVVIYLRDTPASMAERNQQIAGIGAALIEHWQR

SMILES | IC50 (SHV-5 β-lactamase) [nM] | IC50 (p99 AmpC β-lactamase) [nM] | IC50 (KPC-2 β-lactamase) [nM] | MIC of exemplary compounds in presence of fixed β-lactams, S. aureus MSSA-7 PC-1 [1] | IC50 (OXA-1 β-lactamase) [nM] | MIC of exemplary compounds in presence of fixed β-lactams, P. aerug. Ps296 VIM-2 [2] | IC50 [3] [nM] | MIC of exemplary compounds in presence of fixed β-lactams, K.P. 156319 KPC-3 [4] | MIC of exemplary compounds in presence of fixed β-lactams, K.P. A-1797 KPC-2 VIM-4 [5] | MIC of exemplary compounds in presence of fixed β-lactams, E. cl. 144200 p99 AmpC [6] | MIC of exemplary compounds in presence of fixed β-lactams, E. coli ESBL4 CTX-M-15 [7]
O=C(CCc1cncs1)N[C@H]1Cc2cccc(C(=O)O)c2OB1O [Example 32, (R)-2-hydroxy-3-(3-(thiazol-5-yl)propanamido)-3,4-dihydro-2H-benzo[e][1,2]oxaborinine-8-carboxylicacid] | < 100 | < 100 | < 100 | C (C represents the MIC in the presence of ≤4 g/mL of a β-lactamase inhibitor) | < 100 | C (C represents the MIC in the presence of ≤4 g/mL of a β-lactamase inhibitor) | 1000 to 10000 | C (C represents the MIC in the presence of ≤4 g/mL of a β-lactamase inhibitor) | B (B represents the MIC in the presence of between 8 and 32 g/mL of a β-lactamase inhibitor) | C (C represents the MIC in the presence of ≤4 g/mL of a β-lactamase inhibitor) | C (C represents the MIC in the presence of ≤4 g/mL of a β-lactamase inhibitor)
N#CCCCC(=O)N[C@H]1Cc2cccc(C(=O)O)c2OB1O [Example 14, (R)-3-(4-Cyano-butyrylamino)-2-hydroxy-3,4-dihydro-2H-benzo[e][1,2]oxaborinine-8-carboxylic acid] | < 100 | < 100 | < 100 | C (C represents the MIC in the presence of ≤4 g/mL of a β-lactamase inhibitor) | < 100 | C (C represents the MIC in the presence of ≤4 g/mL of a β-lactamase inhibitor) | 1000 to 10000 | C (C represents the MIC in the presence of ≤4 g/mL of a β-lactamase inhibitor) | B (B represents the MIC in the presence of between 8 and 32 g/mL of a β-lactamase inhibitor) | C (C represents the MIC in the presence of ≤4 g/mL of a β-lactamase inhibitor) | C (C represents the MIC in the presence of ≤4 g/mL of a β-lactamase inhibitor)
CC(=O)NCCC(=O)N[C@H]1Cc2cccc(C(=O)O)c2OB1O [Example 20, (R)-3-(3-Acetylamino-propionylamino)-2-hydroxy-3,4-dihydro-2H-benzo[e][1,2]oxaborinine-8-carboxylicacid] | < 100 | < 100 | < 100 | B (B represents the MIC in the presence of between 8 and 32 g/mL of a β-lactamase inhibitor) | < 100 | A (A represents an MIC of the fixed β-lactam antibiotic in the presence of >32 g/mL of a β-lactamase inhibitor) | 1000 to 10000 | C (C represents the MIC in the presence of ≤4 g/mL of a β-lactamase inhibitor) | B (B represents the MIC in the presence of between 8 and 32 g/mL of a β-lactamase inhibitor) | C (C represents the MIC in the presence of ≤4 g/mL of a β-lactamase inhibitor) | C (C represents the MIC in the presence of ≤4 g/mL of a β-lactamase inhibitor)
CC(=O)CCCC(=O)N[C@H]1Cc2cccc(C(=O)O)c2OB1O [Example 13, (R)-2-Hydroxy-3-(5-oxo-hexanoylamino)-3,4-dihydro-2H-benzo[e][1,2]oxaborinine-8-carboxylic acid] | < 100 | < 100 | 100 to 1000 | C (C represents the MIC in the presence of ≤4 g/mL of a β-lactamase inhibitor) | < 100 | C (C represents the MIC in the presence of ≤4 g/mL of a β-lactamase inhibitor) | 100 to 1000 | C (C represents the MIC in the presence of ≤4 g/mL of a β-lactamase inhibitor) | C (C represents the MIC in the presence of ≤4 g/mL of a β-lactamase inhibitor) | C (C represents the MIC in the presence of ≤4 g/mL of a β-lactamase inhibitor) | C (C represents the MIC in the presence of ≤4 g/mL of a β-lactamase inhibitor)
CN(C)C(=O)CCC(=O)N[C@H]1Cc2cccc(C(=O)O)c2OB1O [Example 15, (R)-3-(3-Dimethylcarbamoyl-propionylamino)-2-hydroxy-3,4-dihydro-2H-benzo[e][1,2]oxaborinine-8-carboxylicacid] | < 100 | < 100 | < 100 | C (C represents the MIC in the presence of ≤4 g/mL of a β-lactamase inhibitor) | < 100 | B (B represents the MIC in the presence of between 8 and 32 g/mL of a β-lactamase inhibitor) | 10000 to 100000 | C (C represents the MIC in the presence of ≤4 g/mL of a β-lactamase inhibitor) | A (A represents an MIC of the fixed β-lactam antibiotic in the presence of >32 g/mL of a β-lactamase inhibitor) | C (C represents the MIC in the presence of ≤4 g/mL of a β-lactamase inhibitor) | C (C represents the MIC in the presence of ≤4 g/mL of a β-lactamase inhibitor)
O=C(CN1CCOC1=O)N[C@H]1Cc2cccc(C(=O)O)c2OB1O [Example 30, (R)-2-Hydroxy-3-[2-(2-oxo-oxazolidin-3-yl)-acetylamino]-3,4-dihydro-2H-benzo[e][1,2]oxaborinine-8-carboxylicacid] | < 100 | < 100 | < 100 | C (C represents the MIC in the presence of ≤4 g/mL of a β-lactamase inhibitor) | < 100 | C (C represents the MIC in the presence of ≤4 g/mL of a β-lactamase inhibitor) | 100 to 1000 | C (C represents the MIC in the presence of ≤4 g/mL of a β-lactamase inhibitor) | C (C represents the MIC in the presence of ≤4 g/mL of a β-lactamase inhibitor) | C (C represents the MIC in the presence of ≤4 g/mL of a β-lactamase inhibitor) | C (C represents the MIC in the presence of ≤4 g/mL of a β-lactamase inhibitor)
